In one assay the test system is Towne GFP strain of HCMV. The class given is cell-based, Human Cytomegalovirus (HCMV). Conditions: for inhibition of viral infection: HFF cells, MOI 0.5, 48 hours post infection. As for the experimental part: The Towne strain of HCMV containing the Green Fluorescent Protein (GFP) expression cassette was obtained from Dr. Dan Streblow at the Oregon Health Science University and was propagated in human foreskin fibroblast (HFF) cells. Viral supernatants were collected, centrifuged to clear cell debris, and filtered through a 0.45 μm filter. HFF cells were grown in Dulbecco's modified Eagle medium (DMEM) supplemented with 10% fetal bovine serum (FBS), penicillin G (100 U/mL), streptomycin ([…]), and GLUTAMAX™ L-glutamine supplement (2 mM) from Invitrogen.
Human foreskin fibroblasts were seeded at the density of about 3.5×10^5 cells in each well of a 24-well plate about 24 hours prior to infection. The HFF cells were washed with 1×DPBS, and mock or virus infected for about 90 minutes at room temperature (RT) with the Towne GFP strain of HCMV at about 0.5 multiplicity of infection (MOI), preincubated with a range of concentrations of inhibitory peptides at about 37° C. for about 90 minutes. After the infection, virus mixture was removed and 10% FBS complete DMEM was added to each well and cells were incubated at about 37° C. for about 48 hours. GFP positive cells were visualized about 48 hours post infection by fluorescence microscopy and then quantified using flow cytometry. […] HFF cells were trypsinized, centrifuged, and resuspended in 1% FBS-Dulbecco's phosphate buffered saline (DPBS). GFP positive cells were quantified using flow cytometry (CYTOMICS FC 500 from Beckman Coulter, Fullerton, Calif.).
All of the synthetic peptides were tested at the following concentrations: about 100 μM, 50 μM, 25 μM, 10 μM, 5 μM, 2.5 μM, 1.25 μM, 0.625 μM, 0.3125 μM, 0.156 μM, and 0.078 μM.

The subject of another assay is HSV-1 McIntyre strain. The assay can be described thus: Inhibition of HSV-1 infection of Vero cells (Crystal Violet staining). The class given is cell-based, Herpes Simplex Virus 1 (HSV-1). Conditions: MOI 0.001, peptide 2.5 to 100 μM; for inhibition of HSV-1 infection: 48 hours. Here is the method:
FIG. 6 illustrates inhibition of HSV-1 infection by HCMV gB peptides. To evaluate the ability of newly designed HCMV gB-specific peptide to inhibit HSV-1 infection, Vero cells were infected for about 90 minutes at room temperature with HSV-1 (McIntyre strain; MOI=0.001) that was preincubated with a range of concentrations of four different synthetic peptides at about 37° C. for about 90 minutes. Each treatment was done in triplicate, where A=media, B=HSV-1 MOI of 0.001, C=100 μM peptide and virus, D=50 μM peptide and virus, E=25 μM peptide and virus, F=10 μM peptide and virus, G=5 μM peptide and virus, H=2.5 μM peptide and virus. HCMV gB peptides (Peptide 174-200 (SEQ ID NO: 3), Peptide 233-263 (SEQ ID NO: 4), and Peptide 264-291 (SEQ ID NO: 5)) that are within domain II were inhibitory against HSV-1 infection. Peptide 476-494 (SEQ ID NO: 7) corresponds to trimerization domain of HCMV gB that contains extended α-helices important in the formation of HCMV gB homotrimer during fusion of HCMV virion and lipid membrane of the host cell. Overlapping inhibitory HSV-1 peptides span regions 496-510 and 501-515 of HSV-1 gB (SEQ ID NO: 8) and are analogous to HCMV gB Peptide 476-494 (SEQ ID NO: 7).
To evaluate the ability of HCMV gB peptides to inhibit infection by HSV-1, Vero cells were plated at a density of about 1.5×10^5 cells in each well of a 24 well-plate 24 hours prior to infection. The cells were washed and mock- or virus-infected for about 90 minutes at room temperature with HSV-1 McIntyre strain (ATCC) of about 0.001 MOI preincubated with a range of concentrations of four different synthetic peptides at about 37° C. for about 90 minutes. After exposure to the virus, the virus mixture was removed and the cells were overlayed with 2% FBS MEM containing 1% methylcellulose. Cells were incubated for about 48 hours at about 37° C. After about 48 hours, the cells were fixed, stained with Crystal Violet, and air dried.
In FIG. 6, each treatment was done in triplicate, where A=media, B=HSV-1 MOI of 0.001, C=100 μM peptide and virus, D=50 μM peptide and virus, E=25 μM peptide and virus, F=10 μM peptide and virus, G=5 μM peptide and virus, H=2.5 μM peptide and virus. […] Peptide 476-494 (SEQ ID NO: 7) corresponds to the trimerization domain of HCMV gB, which contains extended α-helices important in the formation of HCMV gB homotrimer during fusion of HCMV virion and lipid membrane of the host cell. Overlapping inhibitory HSV-1 peptides that span regions 496-510 and 501-515 of the HSV-1 gB protein (SEQ ID NO: 8) are analogous to HCMV gB peptide 476-494 (SEQ ID NO: 7). As predicted, HCMV Peptide 476-494 (SEQ ID NO: 7) worked best at the concentration of about 2.5 μM.

Another assay relates to HCMV TRpMIA. The assay can be described thus: Inhibition of HCMV TRpMIA infection of HFF cells (IE-1/IE-2 positive cells). The class given is cell-based, Human Cytomegalovirus (HCMV). Conditions: for significance of inhibition of infection: vs non-treated infected control. Here is the method: In order to assess the ability of the peptides of the present invention to inhibit a clinically significant HCMV (HCMV TRpMIA), Peptide 174-200 (SEQ ID NO:3), Peptide 233-263 (SEQ ID NO: 4), and Peptide 264-291 (SEQ ID NO: 5), were tested for inhibition of HCMV TRpMIA infection of HFF cells under the assay conditions similar to these described in Example 2 for the Towne strain of HCMV, above. In particular, HFF cells were plated in 96-well plates at a density of about 10,000 cells-per-well about 24 hours […]. Individual inhibitory peptides were evaluated against 0.5 MOI HCMV TRpMIA preincubated with various concentrations in the range of about 0.078 micromolar to about 100 micromolar. The results obtained from these assays are shown in FIG. 13, FIG. 14, and FIG. 15 for Peptide 174-200, Peptide 233-263, and Peptide 264-291, respectively. The degree of HCMV infection was determined by evaluating the number of cells expressing immediate-early 1 (IE-1) or IE-2 HCMV proteins 24 hours post-infection. Treatments resulting in significant reductions in the number of cells that were positive for IE 1, IE-2, or both, compared to non-treated control HCMV infected cells, are denoted by a * (p<0.05), ** (p<0.01), and *** (p<0.001, one-way ANOVA and Tukey's post test). Variants and derivatives of Peptide 233-263 (SEQ ID NO: 4) also were prepared and tested in the same assay. The sequences of the tested variants and derivatives are shown in Table 4, with additions or modifications from SEQ ID NO: 4 shown in boldface type.

[1] abbreviates: 50 micromolar, 24 hours post-infection.
The mark [2] stands for this setting: 100 micromolar, 24 hours post-infection.
[3] abbreviates: 25 micromolar to 100 micromolar.

Where two headings read alike, the source gives them in different places.

For the sequence “FFIFPNYTIVSDFGRPNAA (human cytomegalovirus glycoprotein B peptide) [Peptide 297-315, synthetic peptide of HCMV gB residues 297-315]”, the “inhibition of viral infection” value in the assay on Towne GFP strain of HCMV (peptide 50 μM) is reported as “about 40%”.
As for “HFFATSTGDVVYISPFYNGTNRNASYFG (human cytomegalovirus glycoprotein B peptide) [Peptide 264-291, synthetic peptide of HCMV gB residues 264-291]”, the “inhibition of viral infection” value in the assay on Towne GFP strain of HCMV (peptide 5 μM) was “about 70.5%”. In the assay on HSV-1 McIntyre strain, the “inhibition of HSV-1 infection” value was “inhibited HSV-1 infection”. In addition, the “significance of inhibition of infection” value in the assay with HCMV TRpMIA (setting [1]) and in the assay with HCMV TRpMIA (setting [2]) was “* (* (p<0.05))” each time.
“HNLVYAQLQFTYDTLRGYI (human cytomegalovirus glycoprotein B peptide) [Peptide 476-494, synthetic peptide of the trimerization domain of HCMV gB, residues 476-494]”: the “number of HCMV infected cells versus peptide concentration” value in the assay on Towne GFP strain of HCMV (decreasing peptide concentration) is recorded as “the number of HCMV infected cells decreased as the concentration of this peptide decreased”. The “inhibitory activity against HCMV strain Towne-GFP” value in the assay on Towne GFP strain of HCMV (high concentrations tested) was “did not show any inhibitory activity”. In addition, the “concentration at which the peptide worked best against HSV-1” value in the assay with HSV-1 McIntyre strain is “about 2.5 μM”.
With “KDQWHSRGSTWLYRETANLNAMLTITTARSKYPY (Modified HCMV gB peptide) [Peptide 233-263.1]”, in the assay with HCMV TRpMIA, the “inhibition of HCMV TRpMIA infection compared to Peptide 233-263” value (“inhibition … compared to Peptide 233-263” for short) is listed as “less effective” and the “inhibition relative to the controls” value is “some level of inhibition”.
“KDQWHSRGSTWLYRETANLNAMLTITTARSKYPYHFFATS [Peptide 233-263.4]”: in the assay on HCMV TRpMIA, the “inhibition … compared to Peptide 233-263” value is listed as “less effective” and the “inhibition relative to the controls” value was “some level of inhibition”.
For the sequence “VTVKDQWHSRGSTWLYRETANLNAMLTITTARSKYPY (Modified HCMV gB peptide) [Peptide 233-263.2]”, in the assay with HCMV TRpMIA, the “inhibition … compared to Peptide 233-263” value is recorded as “less effective” and the “inhibition relative to the controls” value is on record as “some level of inhibition”.
Take “WEIHHINKFAQAYSSYSRVIGGTVFVA [Peptide 174-200]”: the results for the “inhibition of viral infection” value with Towne GFP strain of HCMV (peptide 2.5 μM), with Towne GFP strain of HCMV (peptide 5 μM) and with Towne GFP strain of HCMV (peptide 100 μM) were roughly 62%, “about 51%” and “about 80%”, respectively. Also, the “inhibition of HSV-1 infection” value in the assay on HSV-1 McIntyre strain was “inhibited HSV-1 infection”. The “significance of inhibition of infection” value with HCMV TRpMIA (25 micromolar, 24 hours post-infection) is “** (** (p<0.01))”; with HCMV TRpMIA (setting [1]) it was “* (* (p<0.05))”; with HCMV TRpMIA (setting [2]), “*** (*** (p<0.001, one-way ANOVA and Tukey's post test))”.
Regarding “WHSRGSTWLYRAETANLNAMLTITTARSKYPY (Modified HCMV gB peptide) [Peptide 233-263.5]”, in the assay on HCMV TRpMIA, the “inhibition … compared to Peptide 233-263” value is on record as “less effective” and the “inhibition relative to the controls” value is recorded as “some level of inhibition”.
With “WHSRGSTWLYRETANLNAMLTITTARSKYPYGRKKRRQRRRP (human cytomegalovirus glycoprotein B peptide) [Peptide 233-263.8]”, in the assay on HCMV TRpMIA, the “inhibition … compared to Peptide 233-263” value was “less effective” and the “inhibition relative to the controls” value is reported as “some level of inhibition”.
Consider “WHSRGSTWLYRETANLNAMLTITTARSKYPYHFF (Modified HCMV gB peptide) [Peptide 233-263.3]”, for which, in the assay with HCMV TRpMIA, the “inhibition … compared to Peptide 233-263” value is recorded as “less effective” and the “inhibition relative to the controls” value is “some level of inhibition”.
On the same counts, the results for “WHSRGSTWLYRETANLNAMLTITTARSKYPYP (Modified HCMV gB peptide) [Peptide 233-263.6]” are “less effective” and “some level of inhibition”.
In the case of “WHSRGSTWLYRETANLNAMLTITTARSKYPYRRRRRRRRR (human cytomegalovirus glycoprotein B peptide) [Peptide 233-263.9]”, in the assay with HCMV TRpMIA (setting [3]), the “extent of inhibition of infection” value is on record as “almost complete inhibition”; the “significance of inhibition of infection” value was “*** (*** (p<0.001, one-way ANOVA and Tukey's post test))”. Also, the “inhibition … compared to Peptide 233-263” value in the assay with HCMV TRpMIA is on record as “significant improvement”.

The values above are taken from patent publication US9434769B2, “Peptide compositions and methods for inhibiting herpesvirus infection” (priority 2009, dated 2016).
